SMILES strings stand for the structures.

Series [1] in a line: Stability of hair levels among individuals on stable doses of opioids, visit 1 vs visit 2 (excluding PRN dose). It is filed as in vivo, human. The following applies: hair level at visit 1 vs hair level at visit 2. An excerpt:
The study includes 2 study visits approximately 60 days apart. The second visit allowable range is between 45 and 75 days after the first visit. Patients submit hair and urine samples at both study visits
The enrolled subjects are current, past or new users of prescribed opioid analgesic regimens in either (i) the past 30 days, (ii) the past 31 to 120 days or were not previously prescribed an opioid regimen. All opioid analgesic regimens are self-reported.
E. Assessment of the Stability of Hair Levels Among Individuals on Stable Doses of Opioids (Excluding PRN Dose)
Also shown in Table 1B and the graphs is data from a sub-population of tested subjects, which excluded patients where the start date of the regimen was within the 90 day window of the enrollment date.

Series [2] in a line: Relationship between prescribed opioid dose and hair levels (excluding PRN dose). It is filed as in vivo, human.
Where [3] appears, read: excluding patients whose prescription started less than 90 days before enrollment (n = 361).

In the case of `CN1CC[C@]23c4c5ccc(O)c4O[C@H]2[C@@H](O)C=C[C@H]3[C@H]1C5` [Morphine, morphine], in series [1] (all interim sample (n = 411)), the “R (correlation coefficient)” value worked out at 0.789 and the R-Squared turned out to be 0.623. Further, in series [1] (setting [3]), the “R (correlation coefficient)” value amounted to 0.974 and the R-Squared amounted to 0.949.
Taken in the same sequence, the figures for `COc1ccc2c3c1O[C@H]1C(=O)CC[C@H]4[C@@H](C2)N(C)CC[C@]314` [Hydrocodone, hydrocodone] were 0.880, 0.775, 0.883 and 0.781.
Consider `COc1ccc2c3c1O[C@H]1C(=O)CC[C@@]4(O)[C@@H](C2)N(C)CC[C@]314` [Oxycodone, oxycodone], for which the “total variation in the hair levels explained by the linear relationship between total daily dose and hair levels (coefficient of determination)” value in series [2] was “approximately 55%”. Further, in series [1] (all interim sample (n = 411)), the “R (correlation coefficient)” value came to 0.959 and the R-Squared was 0.920. Moreover, in series [1] (setting [3]), the “R (correlation coefficient)” value stood at 0.960 and the R-Squared is recorded as 0.922.

Source of the values: US20160011220A1, “Systems and Methods to Quantify Analytes in Keratinized Samples” (PURDUE PHARMA L.P., priority 2012, published 2016).
